Results taken from patent publication US7776882B2, “2-amino-3,4-dihydro-quinoline derivatives useful as inhibitors of β-secretase (BACE)” (priority 2006, dated 2010).

Legend:
human BACE-1 = molecular target: T1, human BACE-1 (Homo sapiens, UniProt P56817); assay: In Vitro BACE Assay run by CEREP (Example 14); format: biochemical; conditions: recombinant enzyme, 60 min at 37° C., pH 4.5; for % Inhibition 1 μM / inhibition at 1 µM: 1 μM compound; for inhibition at 0.3 µM / % Inhibition 0.3 μM: 0.3 μM compound
T1 construct: purchased CEREP (contract assay) 761-B
T1 sequence (P56817 46-501): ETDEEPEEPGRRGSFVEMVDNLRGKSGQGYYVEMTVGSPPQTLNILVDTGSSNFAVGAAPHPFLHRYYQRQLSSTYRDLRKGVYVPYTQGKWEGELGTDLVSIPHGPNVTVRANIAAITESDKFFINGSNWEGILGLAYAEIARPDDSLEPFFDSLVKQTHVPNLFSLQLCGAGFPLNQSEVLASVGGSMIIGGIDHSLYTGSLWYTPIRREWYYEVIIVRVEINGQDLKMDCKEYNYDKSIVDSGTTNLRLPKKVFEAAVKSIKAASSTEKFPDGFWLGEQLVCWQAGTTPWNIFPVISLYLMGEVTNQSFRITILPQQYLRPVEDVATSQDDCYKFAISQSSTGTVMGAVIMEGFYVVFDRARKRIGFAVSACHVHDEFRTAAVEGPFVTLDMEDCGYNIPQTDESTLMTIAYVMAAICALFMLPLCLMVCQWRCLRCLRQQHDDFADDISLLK
Experimental: This assay was run by CEREP (Catalog Ref. 761-B, Referred to SOP No. 1C131; ERMOLIEFF, J., LOY, J. A., KOELSCH, G. and TANG, J., Proteolytic activation of recombinant pro-memapsin 2 (pro-BACE) studied with new fluorogenic substrates, Biochemistry, (2000) Vol. 39, p. 12450).
More specifically the assay, run at 50 μL in a 96 well plate, evaluated the effect of test compound on the activity of the human BACE-1 quantified by measuring the formation of Mca-S-E-V-N-L-NH2 from Mca-S-E-V-N-L-D-A-E-F-R-K(Dnp)-R-R-NH2, using a recombinant enzyme.
The test compound, reference compound or water (control) was added to a buffer containing 0.09 M sodium acetate (pH 4.5) and 0.25 μg BACE-1. Compound interference with the fluorimetric detection method due to autofluorescence was then checked by measurements at the wavelengths defined to evaluate the enzyme activity. Thereafter, the reaction was initiated by adding 7.5 μM of the substrate Mca-S-E-V-N-L-D-A-E-F-R-K(Dnp)-R-R-NH2 and the mixture was incubated for 60 min at 37° C. For control basal measurement, the substrate was omitted from the reaction mixture. Immediately after the incubation, the fluorescence intensity emitted by the reaction product Mca-S-E-V-N-L-NH2 was measured at λex=320 nm and λem=405 nm using a microplate reader (Ultra, Tecan). The standard inhibitory reference compound was OM99-2, which was tested in each experiment at several concentrations to obtain an inhibition curve from which its IC50 value was calculated.

β-secretase (BACE) = molecular target: T2, β-secretase (BACE) (Homo sapiens, UniProt P56817); assay: In Vitro BACE FS1 % Inhibition Assay (Example 10); format: biochemical; conditions: FS1 substrate, values below about 25% (including negative) within noise; for % Inhibition (Example 10) @ 0.3 μM: 0.3 μM compound; for % Inhibition (Example 10) @ 1 μM: 1 μM compound; for % Inhibition (Example 10) @ 3 μM: 3 μM compound
T2 construct: purchased Panvera
T2 sequence (P56817 46-501): as above
Experimental: The following assay buffers were prepared and used in this assay: (1) enzyme assay buffer (0.05 M sodium acetate, pH5, 0.1% PEG8000 (w/v)), (2) substrate assay buffer (0.05 M sodium acetate, pH5), and (3) compound vehicle (30% DMSO in 50 mM HEPES, pH 7.4).
The FS1-substrate stock solution was prepared in DMSO as a 10 mg/mL solution. The FS1-substrate working solution was prepared by diluting the 10 mg/mL stock solution with substrate assay buffer to a final concentration of 300 μg/mL. The β-secretase (BACE) working solution was prepared by diluting a 0.83 mg/mL BACE stock solution with enzyme assay buffer to a final concentration of 4 μg/mL.
Test compounds were dissolved in DMSO to 10 mM. Compounds were further diluted in vehicle to various concentrations in the range of 405 μM to 4.05 μM (13.5×final compound concentration in screening plate).
The screening procedure for this assay was as follows: 15 μL of BACE working solution was pipetted into each well of a 96-well plate. To each well was then pipetted 2 μL of test compound at the selected concentration. Test compound and BACE were then mixed with a pipettor and incubated for 20 min at room temperature. To each well was then added 10 μL of the FS1 substrate working solution. The plates were then incubated for 1 hour at room temperature. The fluorescence for each well was then measured on an LJL analyst (Ex 360 nm/Em 530 nm).
The procedure for the blank (negative control) was as follows. 15 μL of assay buffer was pipetted into each well to be used as a blank control. To each well was then added 2 μL of vehicle and 10 μL of FS1-substrate working solution. The plates were then incubated for 1 hour at room temperature. The fluorescence was measured on an LJL analyst (Ex 360 nm/Em 530 nm).
The procedure for the positive control was as follows: 15 μL of BACE working solution was pipetted into each well to be used as a positive control. To each well was then pipetted 2 μL of vehicle. Vehicle and BACE were then mixed with a pipettor and incubated for 20 min at room temperature. To each well was then added 10 μL of the FS1 substrate working solution. The plates were then incubated for 1 hour at room temperature. The fluorescence (Fl) was then measured on an LJL analyst (Ex 360 nm/Em 530 nm).
For test compounds, % inhibition was determined at each concentration as follows: […]

Row | % Inhibition (Example 10) @ 0.3 μM (β-secretase (BACE)) | % Inhibition (Example 10) @ 1 μM (β-secretase (BACE)) | % Inhibition (Example 10) @ 3 μM (β-secretase (BACE)) | inhibition at 1 µM (human BACE-1) | IC50 (human BACE-1) | SMILES | further results
1 |  |  |  |  |  | Nc1nc2ccc(Oc3ccccc3)cc2cc1C(CCC(=O)NC1CN2CCC1CC2)C1CCOCC1 (mixture of isomers) [compound 52] | % Inhibition 1 μM (human BACE-1): 6%
2 | 14% | 9% | 42% |  |  | Nc1nc2ccc(Oc3ccccc3)cc2cc1CCNC(=O)C1CCCCC1 [compound 4] | 
3 | 22% | 41% | 37% |  |  | COCCNC(=O)CCc1cc2cc(Oc3ccccc3)ccc2nc1N [compound 5] | 
4 | −11% | −13% | −0.3% |  |  | CCN(CC)CCNC(=O)CCc1cc2cc(Oc3ccccc3)ccc2nc1N [compound 10] | 
5 |  | 5% | 81% |  |  | Nc1nc2ccc(Oc3ccccc3)cc2cc1CCC(=O)NCC1CCCCC1 [compound 11] | 
6 | −2% | 0.8% | 19% |  |  | CCCCNC(=O)CCc1cc2cc(Oc3ccccc3)ccc2nc1N [compound 12] | 
7 | −14% | −27% | −15% |  |  | Nc1nc2ccc(Oc3ccccc3)cc2cc1CCC(=O)N[C@H](CO)CC1CCCCC1 [compound 14] | 
8 | 19% | 20% | 46% |  |  | Nc1nc2ccc(Oc3ccccc3)cc2cc1CCCC(=O)NC12CC3CC(CC(C3)C1)C2 [compound 17] | 
9 | 29% | 26% | 36% |  |  | CN(C(=O)CCCc1cc2cc(Oc3ccccc3)ccc2nc1N)C1CCCCC1 [compound 18] | 
10 | −15% |  | 24% |  |  | COC(=O)[C@H]1CC[C@@H](NC(=O)CCC(c2cc3cc(Oc4ccccc4)ccc3nc2N)C2CCCCC2)CC1 (stereo partly drawn) [compound 19] | 
11 | −8% | −11% | 34% |  |  | COC(=O)[C@H]1CC[C@H](NC(=O)CCC(c2cc3cc(Oc4ccccc4)ccc3nc2N)C2CCCCC2)CC1 (stereo partly drawn) [compound 20] | 
12 | 0.5% | −1% | 10% |  |  | Nc1nc2ccc(Oc3ccccc3)cc2cc1C(CCC(=O)N[C@H]1CC[C@@H](C(=O)O)CC1)C1CCCCC1 (stereo partly drawn) [compound 21] | 
13 | 0.6% | −19% | −3% |  |  | Nc1nc2ccc(Oc3ccccc3)cc2cc1C(CCC(=O)N[C@H]1CC[C@H](C(=O)O)CC1)C1CCCCC1 (stereo partly drawn) [compound 22] | 
14 |  |  |  | 91% | 410 nM | Nc1nc2ccc(Oc3ccccc3)cc2cc1C(CCC(=O)N(Cc1ncc[nH]1)C1CCCCC1)C1CCOCC1 (stereo not drawn) [compound 30] | 
15 |  |  |  | 59% | 740 nM | Nc1nc2ccc(Oc3ccccc3)cc2cc1C(CCC(=O)NCc1nnnn1Cc1ccccc1)C1CCOCC1 (stereo not drawn) [compound 31] | inhibition at 0.3 µM (human BACE-1): 32%
16 |  |  |  | 59% | 610 nM | Nc1nc2ccc(Oc3ccccc3)cc2cc1C(CCC(=O)NCC1CC1)C1CCOCC1 (stereo not drawn) [compound 36] | inhibition at 0.3 µM (human BACE-1): 49%
17 |  |  |  | 81% | 580 nM | Nc1nc2ccc(Oc3ccccc3)cc2cc1C(CCC(=O)N(CCN1CCCC1)C1CCCCC1)C1CCCCC1 (stereo not drawn) [compound 37] | inhibition at 0.3 µM (human BACE-1): 27%
18 |  |  |  |  |  | CN(Cc1ccccc1)C(=O)CCC(c1cc2cc(Oc3ccccc3)ccc2nc1N)C1CCCCC1 (stereo not drawn) [compound 38] | % Inhibition 0.3 μM (human BACE-1): 8%; % Inhibition 1 μM (human BACE-1): 9%

Row | % Inhibition (Example 10) @ 0.3 μM (β-secretase (BACE)) | % Inhibition (Example 10) @ 1 μM (β-secretase (BACE)) | % Inhibition (Example 10) @ 3 μM (β-secretase (BACE)) | inhibition at 1 µM (human BACE-1) | IC50 (human BACE-1) | SMILES | further results
19 |  |  |  |  | 490 nM | Cn1ccnc1CN(C(=O)CCC(c1cc2cc(Oc3ccccc3)ccc2nc1N)C1CCCCC1)C1CCCCC1 (stereo not drawn) [compound 39] | inhibition at 0.3 µM (human BACE-1): 16%
20 |  |  |  |  | 650 nM | CN(CC1CCCCC1)C(=O)CCC(c1cc2cc(Oc3ccccc3)ccc2nc1N)C1CCCCC1 (stereo not drawn) [compound 40] | % Inhibition 0.3 μM (human BACE-1): 13%; % Inhibition 1 μM (human BACE-1): 54%
21 |  |  |  | 79% | 470 nM | Nc1nc2ccc(Oc3ccccc3)cc2cc1C(CCC(=O)N(c1ncc[nH]1)C1CCCCC1)C1CCCCC1 (stereo not drawn) [compound 41] | inhibition at 0.3 µM (human BACE-1): 11%
22 |  |  |  | 58% | 810 nM | Nc1nc2ccc(Oc3ccccc3)cc2cc1C(CCC(=O)N(CCO)C1CCCCC1)C1CCCCC1 (stereo not drawn) [compound 42] | 
23 |  |  |  | 88% | 650 nM | Cn1ccnc1CN(CC(C)(C)C)C(=O)CCC(c1cc2cc(Oc3ccccc3)ccc2nc1N)C1CCCCC1 (stereo not drawn) [compound 43] | 
24 |  |  |  | 46% | 1100 nM | CC(C)(C)OC[C@@H](NC(=O)CC[C@H](c1cc2cc(Oc3ccccc3)ccc2nc1N)C1CCCCC1)C(=O)N1CCOCC1 [compound 45] | 
25 |  |  |  |  | 740 nM | Nc1nc2ccc(Oc3ccccc3)cc2cc1C(CCC(=O)N(CCO)C1CCCCC1)C1CCOCC1 (stereo not drawn) [compound 50] | % Inhibition 1 μM (human BACE-1): 87%
26 |  |  |  | 90% | 460 nM | Nc1nc2ccc(Oc3ccccc3)cc2cc1C(CCC(=O)N(Cc1c[nH]cn1)C1CCCCC1)C1CCOCC1 (stereo not drawn) [compound 53] | 
27 |  |  |  | 85% | 450 nM | Cn1ccnc1CN(C(=O)CCC(c1cc2cc(Oc3ccccc3)ccc2nc1N)C1CCOCC1)C1CCCCC1 (stereo not drawn) [compound 54] | 
28 |  |  |  | 83% | 420 nM | Cn1ccnc1CN(CC(C)(C)C)C(=O)CCC(c1cc2cc(Oc3ccccc3)ccc2nc1N)C1CCOCC1 (stereo not drawn) [compound 55] | 
29 |  |  |  |  |  | Cn1ccnc1CN(CCC(C)(C)C)C(=O)CCC(c1cc2cc(Oc3ccccc3)ccc2nc1N)C1CCOCC1 (stereo not drawn) [compound 56] | % Inhibition 1 μM (human BACE-1): 94%
30 |  |  |  |  |  | CC(C)(C)CCN(Cc1ncc[nH]1)C(=O)CCC(c1cc2cc(Oc3ccccc3)ccc2nc1N)C1CCOCC1 (stereo not drawn) [compound 57] | % Inhibition 1 μM (human BACE-1): 93%
31 |  |  |  |  |  | CC(C)(C)CN(Cc1ncc[nH]1)C(=O)CCC(c1cc2cc(Oc3ccccc3)ccc2nc1N)C1CCOCC1 (stereo not drawn) [compound 58] | % Inhibition 1 μM (human BACE-1): 88%
32 |  |  |  |  |  | CC(C)(C)CN(Cc1c[nH]cn1)C(=O)CCC(c1cc2cc(Oc3ccccc3)ccc2nc1N)C1CCOCC1 (stereo not drawn) [compound 59] | % Inhibition 1 μM (human BACE-1): 78%
33 | 24% | −8% | 17% |  |  | Cc1ccccc1N1CCN(C(=O)CCc2cc3cc(Oc4ccccc4)ccc3nc2N)CC1 [compound 75] | 
34 | 28% |  | 16% |  |  | Nc1nc2ccc(Oc3ccccc3)cc2cc1CCC(=O)N1CCN(c2cccc(F)c2)CC1 [compound 76] | 
35 | 28% | 19% | 36% |  |  | C=CCC(c1cc2cc(Oc3ccccc3)ccc2nc1N)C1CCCCC1 (stereo not drawn) [compound 503] | 
36 | 21% | 21% | 18% |  |  | COC(=O)CCCc1cc2cc(Oc3ccccc3)ccc2nc1N [compound 504] | 

Row | SMILES | % Inhibition (Example 10) @ 0.3 μM (β-secretase (BACE)) | % Inhibition (Example 10) @ 1 μM (β-secretase (BACE)) | % Inhibition (Example 10) @ 3 μM (β-secretase (BACE)) | inhibition at 1 µM (human BACE-1) | IC50 (human BACE-1) | further results
37 | Nc1nc2ccc(Oc3ccccc3)cc2cc1C(CCC(=O)NC1CN2CCC1CC2)C1CCOCC1 (stereo not drawn) [compound 51] |  |  |  | 56% | 1200 nM | 
